# Source: paper PMC6001238, “Iterative Chemical Engineering of Vancomycin Leads to Novel Vancomycin Analogs With a High in Vitro Therapeutic Index” (Frontiers in Microbiology, 2018)
# Key:
# [1] = tested on: E. faecalis VSE 1; test: MIC, broth microdilution, vancomycin-sensitive E. faecalis (VSE 1); format: cell-based, Enterococcus faecalis; settings: for MIC: Enterococcus faecalis VSE 1 (vancomycin-sensitive), read-out: MIC; for MIC-fold improvement vs. vancomycin: VSE 1, ratio of MIC of vancomycin and MIC of analogue
# In short: (§1)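 Following CLSI antimicrobial susceptibility standards, organisms were tested by broth microdilution. Controls comprised ultrapure water plus broth left uninoculated. For a single condition, 10 μM vancomycin (final) accompanied the analog or control agent.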
# [2] = tested on: human T-lymphocyte (CEM) cells; test: Cytostatic activity, CEM cell proliferation; format: cell-based; settings: mean ± SD of three experiments; highest concentration tested 250 µM; 3 days; read-out: Toxicity (IC50) CEM
# In short: (§2)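 Suspensions (300,000–500,000 cells/mL) combined with equal volumes of diluted compound; 37°C; L1210 2 d / CEM 3 d / HeLa 4 d; counted by Coulter counter; IC50 vs untreated wells.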
# [3] = tested on: E. faecalis VRE 29; test: MIC, broth microdilution, vancomycin-resistant E. faecalis VRE 29 (VanA); format: cell-based, Enterococcus faecalis; settings: for MIC: Enterococcus faecalis VRE 29 (vancomycin-resistant), read-out: MIC; for MIC-fold improvement vs. vancomycin: VRE 29, ratio of MIC of vancomycin and MIC of analogue
# In short: as §1
# [4] = tested on: S. aureus VSSA (ATCC 6538); test: MIC, broth microdilution, vancomycin-sensitive S. aureus (VSSA/MSSA, ATCC 6538); format: cell-based, Staphylococcus aureus; settings: for MIC: Staphylococcus aureus VSSA, read-out: MIC; for MIC-fold improvement vs. vancomycin: VSSA, ratio of MIC of vancomycin and MIC of analogue
# In short: as §1
# [5] = tested on: human cervix carcinoma (HeLa) cells; test: Cytostatic activity, HeLa cell proliferation; format: cell-based; settings: mean ± SD of three experiments; highest concentration tested 250 µM; 4 days; read-out: Toxicity (IC50) HeLa
# In short: as §2
# [6] = tested on: S. aureus VRSA; test: MIC, broth microdilution, vancomycin-resistant S. aureus (VRSA); format: cell-based, Staphylococcus aureus; settings: for MIC: Staphylococcus aureus VRSA, read-out: MIC; for MIC-fold improvement vs. vancomycin: VRSA, ratio of MIC of vancomycin and MIC of analogue
# In short: as §1
# [7] = tested on: S. aureus VISA/HIP5827; test: MIC, broth microdilution, vancomycin-intermediate S. aureus VISA HIP5827; format: cell-based, Staphylococcus aureus; settings: for MIC: Staphylococcus aureus VISA/HIP5827, read-out: MIC; for MIC-fold improvement vs. vancomycin: VISA/HIP5827, ratio of MIC of vancomycin and MIC of analogue
# In short: as §1
# [8] = tested on: MRSA KS2; test: MIC, broth microdilution, MRSA KS2; format: cell-based, Staphylococcus aureus; settings: for MIC-fold improvement vs. vancomycin: MRSA KS2, ratio of MIC of vancomycin and MIC of analogue; for MIC: Staphylococcus aureus MRSA KS2, read-out: MIC
# In short: as §1
# [9] = tested on: Murine leukemia (L1210) cells; test: Cytostatic activity, L1210 cell proliferation; format: cell-based; settings: mean ± SD of three experiments; highest concentration tested 250 µM; 2 days; read-out: Toxicity (IC50) L1210
# In short: as §2
# [10] = tested on: MRSA KS1; test: MIC, broth microdilution, MRSA KS1; format: cell-based, Staphylococcus aureus; settings: for MIC-fold improvement vs. vancomycin: MRSA KS1, ratio of MIC of vancomycin and MIC of analogue; for MIC: Staphylococcus aureus MRSA KS1, read-out: MIC
# In short: as §1
# [11] = tested on: E. faecalis VRE 37; test: MIC, broth microdilution, vancomycin-resistant E. faecalis VRE 37 (VanA); format: cell-based, Enterococcus faecalis; settings: for MIC: Enterococcus faecalis VRE 37 (vancomycin-resistant), read-out: MIC; for MIC-fold improvement vs. vancomycin: VRE 37, ratio of MIC of vancomycin and MIC of analogue
# In short: as §1
# [12] = tested on: MRSA KS6; test: MIC, broth microdilution, MRSA KS6; format: cell-based, Staphylococcus aureus; settings: for MIC-fold improvement vs. vancomycin: MRSA KS6, ratio of MIC of vancomycin and MIC of analogue; for MIC: Staphylococcus aureus MRSA KS6, read-out: MIC
# In short: as §1
# [13] = tested on: E. faecalis VRE 6; test: MIC, broth microdilution, vancomycin-resistant E. faecalis VRE 6 (VanA); format: cell-based, Enterococcus faecalis; settings: for MIC: Enterococcus faecalis VRE 6 (vancomycin-resistant), read-out: MIC; for MIC-fold improvement vs. vancomycin: VRE 6, ratio of MIC of vancomycin and MIC of analogue
# In short: as §1
# [14] = tested on: L1210, CEM and HeLa cell lines; test: Cytostatic activity, average or summary over L1210, CEM and HeLa; format: cell-based; settings: average of L1210, CEM and HeLa; read-out: Toxicity (IC50) Average
# In short: as §2
# [15] = tested on: MRSA KS89; test: MIC, broth microdilution, MRSA KS89; format: cell-based, Staphylococcus aureus; settings: for MIC-fold improvement vs. vancomycin: MRSA KS8, ratio of MIC of vancomycin and MIC of analogue; for MIC: Staphylococcus aureus MRSA KS8, read-out: MIC
# In short: as §1
# [16] = tested on: E. faecalis VRE 53; test: MIC, broth microdilution, vancomycin-resistant E. faecalis VRE 53 (VanA); format: cell-based, Enterococcus faecalis; settings: for MIC: Enterococcus faecalis VRE 53 (vancomycin-resistant), read-out: MIC; for MIC-fold improvement vs. vancomycin: VRE 53, ratio of MIC of vancomycin and MIC of analogue
# In short: as §1
SMILES,MIC [1],MIC-fold improvement vs. vancomycin [1],IC50 [2],MIC [3],MIC-fold improvement vs. vancomycin [3],MIC [4],MIC-fold improvement vs. vancomycin [4],IC50 [5],MIC [6],MIC-fold improvement vs. vancomycin [6],MIC [7],MIC-fold improvement vs. vancomycin [7],MIC-fold improvement vs. vancomycin [8],MIC [8],IC50 [9],MIC-fold improvement vs. vancomycin [10],MIC [10],MIC [11],MIC-fold improvement vs. vancomycin [11],MIC-fold improvement vs. vancomycin [12],further results
CN[C@H](CC(C)C)C(=O)N[C@H]1C(=O)N[C@@H](CC(N)=O)C(=O)N[C@H]2C(=O)N[C@H]3C(=O)N[C@H](C(=O)N[C@H](C(=O)NCC(=O)Nc4ccc([N+](=O)[O-])cc4)c4cc(O)cc(O)c4-c4cc3ccc4O)[C@H](O)c3ccc(c(Cl)c3)Oc3cc2cc(c3O[C@@H]2O[C@H](CO)[C@@H](O)[C@H](O)[C@H]2O[C@H]2C[C@](C)(N)[C@H](O)[C@H](C)O2)Oc2ccc(cc2Cl)[C@H]1O [Vanc-67],0.78 µM,2,165 ± 32 µM,25 µM,16,0.78 µM,1,52 ± 19 µM,6.25 µM,16,1.56 µM,4,2,0.39 µM,≥ 250 µM,1,0.78 µM,25 µM,16,1,MIC [12]: 0.78 µM; MIC [13]: 12.5 µM; MIC-fold improvement vs. vancomycin [13]: 16; IC50 [14]: 156 µM; MIC-fold improvement vs. vancomycin [15]: 1; MIC [15]: 0.78 µM; MIC [16]: 25 µM; MIC-fold improvement vs. vancomycin [16]: 16
CNC(CC(C)C)C(=O)NC1C(=O)NC(CC(N)=O)C(=O)NC2C(=O)NC3C(=O)NC(C(=O)NC(C(=O)NCCCNC(=O)c4ccc5cc(NS(=O)(=O)c6ccc(C)cc6)ccc5c4)c4cc(O)cc(O)c4-c4cc3ccc4O)C(O)c3ccc(c(Cl)c3)Oc3cc2cc(c3OC2OC(CO)C(O)C(O)C2OC2CC(C)(N)C(O)C(C)O2)Oc2ccc(cc2Cl)C1O (stereo not drawn) [Vanc-65],0.39 µM,4,≥ 250 µM,6.25 µM,64,0.39 µM,2,54 ± 45 µM,0.39 µM,256,0.78 µM,8,4,0.20 µM,> 250 µM,1,0.78 µM,6.25 µM,64,2,MIC [12]: 0.39 µM; MIC [13]: 3.13 µM; MIC-fold improvement vs. vancomycin [13]: 64; IC50 [14]: 185 µM; MIC-fold improvement vs. vancomycin [15]: 2; MIC [15]: 0.39 µM; MIC [16]: 25 µM; MIC-fold improvement vs. vancomycin [16]: 16
CNC(CC(C)C)C(=O)NC1C(=O)NC(CC(N)=O)C(=O)NC2C(=O)NC3C(=O)NC(C(=O)NC(C(=O)NCCCNC(=O)c4nc5ccccc5[nH]4)c4cc(O)cc(O)c4-c4cc3ccc4O)C(O)c3ccc(c(Cl)c3)Oc3cc2cc(c3OC2OC(CO)C(O)C(O)C2OC2CC(C)(N)C(O)C(C)O2)Oc2ccc(cc2Cl)C1O (stereo not drawn) [Vanc-52],0.78 µM,2,> 250 µM,50 µM,8,0.39 µM,2,104 ± 13 µM,1.56 µM,64,0.78 µM,8,2,0.39 µM,≥ 250 µM,2,0.39 µM,50 µM,8,1,MIC [12]: 0.78 µM; MIC [13]: 25 µM; MIC-fold improvement vs. vancomycin [13]: 8; IC50 [14]: 201 µM; MIC-fold improvement vs. vancomycin [15]: 1; MIC [15]: 0.78 µM; MIC [16]: 25 µM; MIC-fold improvement vs. vancomycin [16]: 16
